Results as given in PMC11851433, “Novel Quinazoline Derivatives Inhibit Splicing of Fungal Group II Introns” (ACS Chemical Biology, 2025).
In brackets after ≈: the same amount, converted by molar mass. Like-named read-outs stand apart in the source and are kept apart here. Each block holds one compound with its values, some of them ahead of it.

Legend:
ai5γ group II intron [1] = assay: Radioanalytic in vitro splicing assay, splicing inhibition constants; assay type: biochemical, Saccharomyces cerevisiae; conditions: for improvement of inhibitory activity (Ki) relative to compound 3: vs compound 3
Description: Internally ^32P-labeled ai5γ intron RNA with short exons[54] was in vitro transcribed in the presence of ^32P-α-UTP using T7 RNA polymerase and purified on a 5% denaturing polyacrylamide gel as described.[55] Large-scale transcription of the […] ribozyme, utilized for HTS, was carried out as previously described.[56] Splicing inhibition constants were determined as previously described[33],[34] with the following change in the experimental procedure: reactions were carried out in a buffer of 50 mM MOPS pH 7.5, 100 mM MgCl2, and 500 mM KCl at 42 °C. Aliquots of the reaction mixture were withdrawn at different time points, quenched, and analyzed on a 5% denaturing polyacrylamide gel as previously described.[55] Inhibition constants were determined as previously described.[33],[34] Experiments were performed twice to ensure reproducibility. Data represent average ± s.e.m.

D135 ribozyme = assay: HTS / dose–response intron activity assay (fluorescently labeled substrate, D135 ribozyme); assay type: biochemical, Saccharomyces cerevisiae; conditions: 10 concentrations, highest 100 μM, 1:3 serial dilution
Description: The RNA oligonucleotide substrate for HTS, containing the last 17 nucleotides of the native 5′-exon and the first two nucleotides of the ai5γ intron,[33] was synthesized on a MerMade 12 RNA-DNA synthesizer (BioAutomation) using TBDMS RNA phosphoramidites (TxBio), aminomodifier C6dT, and Black Hole Quencher 2 CPG (Glen Research). For base deprotection, the oligonucleotide was treated with 30% ammonium hydroxide (JT Baker) for 24 h at RT. The 2’–OH deprotection and oligonucleotide purification were carried out as described.[57],[58] Fluorescent labeling of the substrate with the NHS ester of AlexaFluor 555 was carried out as described.[33]
HTS was carried out by CRL using the fluorescently labeled substrate, unlabeled D135 ribozyme (see above), and a proprietary library of ∼1,50,000 compounds using assay conditions previously described,[33] with the following adaptations. The D135 ribozyme (20 nM final concentration) was first prefolded in a buffer of 50 mM MOPS, pH 7.5, 50 mM MgCl2, and 500 mM KCl at 37 °C for 30 min. Library compounds were then added at 12.5 μM final concentration followed by addition of the substrate (to 15 nM final concentration), and the reaction mixtures were incubated at 37 °C for 40 min. Reactions were was quenched by addition of urea (2.67 M final) and analyzed as described. […]

[2] = tested on: C. parapsilosis COX1 precursor mRNA splicing; assay: In cellulo analysis of group II intron splicing by qRT-PCR; assay type: cell-based, Candida parapsilosis; conditions: compound 64 μg/mL, PGK1 as standard
Description: C. parapsilosis (ATCC: 22019) growth and harvest was performed essentially as described[33] with the following modifications. Compounds dissolved in DMSO were added to individual cultures to a final concentration of 64 μg/mL. Total RNA was isolated using an E.Z.N.A Fungal RNA Mini Kit (Omega Bio-tek) according to the manufacturer’s protocol. The RNA was eluted in 50 μL of a 1:100 mixture of SUPERaseIn RNase inhibitor (Thermo Fisher): MOPS-EDTA (ME) buffer [10 mM MOPS (pH 6.5), 0.1 mM Na-EDTA (pH 8.5)] followed by DNase treatment with RQ1 DNase (Promega) for 30 min at 37 °C. Then, the reaction was mixed with 7 μL of 3 M NaOAc and precipitated with 80% EtOH at –20 °C. The recovered RNA was resuspended in 30 μL of 1:100 mixture of SUPERaseIn RNase inhibitor/ME buffer. Next, 200 ng of Random Hexamer Primers (Thermo Fisher) was annealed to 10 ng of RNA in 11 μL at 65 °C for 5 min. The annealing reaction mixture was then cooled to RT, followed by the addition of 9 μL of a SuperScript III (Thermo Fisher) master mix: 1X First Strand Synthesis Buffer, 0.5 mM dNTPs (NEB: N0447S), 5 mM DTT, 10U SUPERaseIn RNase inhibitor, and 100 U SuperScript III. Manufacturer reverse transcription conditions were used, followed by an inactivation step at 75 °C for 15 min. After reverse transcription, RNA was degraded by adding 1.5 μL of a 1:1:1 mixture of RNase H (NEB), RNase A (NEB), and RNase T1 (Thermo Fisher) and incubating at 37 °C for 30 min. The cDNA was then purified using AMPure beads (Beckman Coulter) at a 1.8× bead-to-sample ratio according to the manufacturer’s protocol. Purified cDNA was eluted in 30 μL of nuclease-free water. Real-time PCR quantification of cDNA and subsequent determination of the relative levels of PGK1, COX1 (total), and COX1 (unspliced) from different conditions were performed in duplicate with three independent samples as previously described.[33]

HEK-293T cells = assay: Cytotoxicity in HEK-293T cells (Cell Titer Glo); assay type: cell-based; conditions: Homo sapiens, read-out: IC50 for cell growth inhibition
Description: For the cytotoxicity experiments, cells were aliquoted into black 96-well plates with a clear bottom (Corning 3603), grown, treated with the inhibitors, and subjected to the Cell Titer Glo cell viability assay (Promega) as previously described.[33] All experiments were performed in triplicate.

[3] = tested on: COX1 intronless S. cerevisiae strain; assay: Inhibition of S. cerevisiae growth, COX1 intronless strain; assay type: cell-based, Saccharomyces cerevisiae
Description: (§1) C. parapsilosis [strain American Type Culture Collection (ATCC) 22019] was purchased from ATCC and cultured according to the manufacturer’s instructions. S. cerevisiae wild-type (NP40-36a) and mtDNA intronless (XPM46) strains were a gift from Dr. Thomas Fox (Dept. of Molecular Biology and Genetics, Cornell University).[44]
(§2) Reduction of yeast growth in the presence of inhibitor molecules was assayed either in liquid YPD media (BD Bacto Yeast Extract, BD Bacto Peptone, 2% glucose) or in YPG media (BD Bacto Yeast Extract, BD Bacto Peptone, 3% glycerol), as previously described[33],[34],[59] with the following adaptations. Yeast cultures were grown for 24 h in YPD medium and for […] in YPG medium. All experiments were performed in triplicate to ensure reproducibility.

WT S. cerevisiae strain = assay: Inhibition of S. cerevisiae growth, WT strain; assay type: cell-based, Saccharomyces cerevisiae
Description: as §1, §2

C. parapsilosis = assay: MIC determination for C. parapsilosis (CLSI M27-A3); assay type: cell-based, Candida parapsilosis; conditions: for MIC C. parapsilosis: Supplementary table 1; for MIC: Lodderomyces parapsilosis
Description: as §1, with “University).[44] MICs for C. parapsilosis were determined as previously described[33] according to the guidelines from the protocol M27-A3 from the Clinical and Laboratory Standards Institute (CLSI).[59] All experiments were performed in triplicate.” for “University).[44]”

[4] = tested on: C. parapsilosis COX1 precursor mRNA splicing; parameters: method as in PMID 30323219; conditions: for comparison; cited from earlier work
ai5γ group II intron [5] = target: ai5γ group II intron; parameters: method as in PMID 30323219; conditions: for comparison; read-out: Ki of previously published inhibitors; cited from earlier work
[6] = Figure 3, 100 mM MgCl2, 500 mM KCl, 42 °C, read-out: Ki for the in vitro splicing of the ai5γ intron
[7] = Supplementary table 1, read-out: Ki ai5γ intron

Ki (ai5γ group II intron [1]; [6]): 27 ± 6 µM
IC50 (D135 ribozyme): 3 µM
SMILES: COc1ccc(Nc2nc(-c3ccccn3)nc3ccccc23)cc1 [compound 1]

Ki (ai5γ group II intron [1]; [6]): 1.4 ± 0.4 µM
SMILES: Clc1cccc(CNc2nc(-c3ccccn3)nc3cc(Cl)ccc23)c1 [compound 19]
effect on splicing of C. parapsilosis COX1 (unspliced relative to total COX1 mRNA) [2]: remained unchanged

SMILES: c1ccc(-c2nc(Nc3ccc4c(c3)OCO4)c3ccccc3n2)nc1 [compound 12]
Ki (ai5γ group II intron [1]; [7]): 11 ± 2 µM
increase in inhibitory activity relative to compound 1 (ai5γ group II intron [1]; vs compound 1): 3 fold

Ki (ai5γ group II intron [1]; [7]): 77 ± 25 µM
SMILES: c1ccc(CNc2nc(-c3ccccn3)nc3ccccc23)cc1 [compound 3]

SMILES: C[C@@H]1[C@H](O)[C@@H](C)/C=C/C=C/C=C/C=C/C=C/C=C/C=C/[C@H](O[C@@H]2O[C@H](C)[C@@H](O)[C@H](N)[C@@H]2O)C[C@@H]2O[C@](O)(C[C@@H](O)C[C@@H](O)[C@H](O)CC[C@@H](O)C[C@@H](O)CC(=O)O[C@H]1C)C[C@H](O)[C@H]2C(=O)O [amphotericin B, reference compound]
IC50 (HEK-293T cells): 2.6 ± 0.2 µg/mL (≈ 2.81 µM)

Ki (ai5γ group II intron [1]; [7]): 6.4 ± 1.9 µM
improvement of inhibitory activity (Ki) relative to compound 3 (ai5γ group II intron [1]): more than 10 fold
SMILES: CC(C)(C)c1cccc(CNc2nc(-c3ccccn3)nc3ccccc23)c1 [compound 15]

SMILES: c1ccc(-c2nc(N3Cc4ccccc4C3)c3ccccc3n2)nc1 [compound 14]
Ki (ai5γ group II intron [1]; [7]): 7.6 ± 1.7 µM
MIC S. cerevisiae intronless strain [3]: 32 µg/mL (≈ 98.6 µM)
growth inhibition of WT vs COX1 intronless S. cerevisiae strain (WT S. cerevisiae strain; WT more strongly inhibited than intronless strain): eight-fold
MIC S. cerevisiae WT strain (WT S. cerevisiae strain; WT strain): 4 µg/mL (≈ 12.3 µM)

MIC C. parapsilosis (C. parapsilosis): > 128 µg/mL
Ki (ai5γ group II intron [1]; [7]): 55 ± 19 µM
SMILES: COc1cccc(CNc2nc(-c3ccccn3)nc3ccccc23)c1 [compound 2]

SMILES: FC(F)(F)c1cccc(CNc2nc(-c3ccccn3)nc3ccccc23)c1 [compound 16]
MIC in C. parapsilosis (C. parapsilosis): 4 µg/mL (≈ 10.5 µM)
MIC (C. parapsilosis): 2 to 8 µg/mL (≈ 5.26 to 21 µM)
Ki (ai5γ group II intron [1]; [7]): 5.6 ± 0.6 µM
improvement of inhibitory activity (Ki) relative to compound 3 (ai5γ group II intron [1]): more than 10 fold
MIC ([3]; Saccharomyces cerevisiae): 64 µg/mL (≈ 168 µM)
MIC (WT S. cerevisiae strain; Saccharomyces cerevisiae): 16 µg/mL (≈ 42.1 µM)
IC50 (HEK-293T cells): 5.6 ± 0.1 µg/mL (≈ 14.7 µM)
effect on splicing of C. parapsilosis COX1 (unspliced relative to total COX1 mRNA) [2]: moderate defects

Ki (ai5γ group II intron [1]; [7]): > 100 µM
SMILES: c1ccc(Nc2ncnc3ccccc23)cc1 [compound 6]

Ki (ai5γ group II intron [1]; [7]): > 100 µM
SMILES: c1ccc(CNc2ncnc3ccccc23)cc1 [compound 7]

MIC C. parapsilosis (C. parapsilosis): 16 µg/mL (≈ 60.3 µM)
Ki (ai5γ group II intron [1]; [7]): > 100 µM
SMILES: COc1cccc(CNc2ncnc3ccccc23)c1 [compound 5]

Ki (ai5γ group II intron [1]; [7]): > 100 µM
SMILES: CC(C)(C)c1ccc(Nc2nc(-c3ccncc3)nc3ccccc23)cc1 [compound 11]
inhibitory activity in the splicing assay (in words) (ai5γ group II intron [1]): completely abolishes activity

SMILES: O=C(NCCN1CCCC1)c1ccc2oc(C(=O)c3cc(O)c(O)c(O)c3)cc2c1 [intronistat B]
levels of unspliced vs total C. parapsilosis COX1 transcripts [4]: 1.5 fold
Ki (ai5γ group II intron [5]): 0.36 ± 0.02 µM

Ki (ai5γ group II intron [1]; [7]): 20 ± 6 µM
SMILES: FC(F)(F)c1cccc(CNc2nc(-c3ccccn3)nc3cc(Cl)ccc23)c1 [compound 18]
drop in inhibitory activity relative to compound 16 (ai5γ group II intron [1]; vs compound 16): four-fold

Ki (ai5γ group II intron [1]; [7]): > 100 µM
SMILES: COc1ccc(Nc2ncnc3ccccc23)cc1 [compound 4]

Ki (ai5γ group II intron [1]; [7]): > 100 µM
SMILES: Nc1nc(-c2ccccn2)nc2ccccc12 [compound 8]

MIC in C. parapsilosis (C. parapsilosis): 2 µg/mL (≈ 5.77 µM)
MIC (C. parapsilosis): 2 to 8 µg/mL (≈ 5.77 to 23.1 µM)
Ki (ai5γ group II intron [1]; [7]): 2.6 ± 0.5 µM
improvement of inhibitory activity (Ki) relative to compound 3 (ai5γ group II intron [1]): 30 fold
SMILES: Clc1cccc(CNc2nc(-c3ccccn3)nc3ccccc23)c1 [compound 17]
IC50 (HEK-293T cells): 3.9 ± 0.1 µg/mL (≈ 11.2 µM)
effect on splicing of C. parapsilosis COX1 (unspliced relative to total COX1 mRNA) [2]: moderate defects

Ki (ai5γ group II intron [1]; [7]): > 100 µM
SMILES: c1ccc(-c2ncc3ccccc3n2)nc1 [compound 9]

SMILES: CC(=O)c1ccc(-c2ccc3oc(C(=O)c4cc(O)c(O)c(O)c4)cc3c2)cc1 [intronistat A]
Ki (ai5γ group II intron [5]): 2.1 ± 0.2 µM

MIC (C. parapsilosis): 2 to 8 µg/mL (≈ 5.64 to 22.6 µM)
Ki (ai5γ group II intron [1]; [7]): 11 ± 2 µM
SMILES: CC(C)(C)c1ccc(Nc2nc(-c3ccccn3)nc3ccccc23)cc1 [compound 10]
